The text below walks through data of PubChem BioAssay AID602354 (The Scripps Research Institute Molecular Screening Center, 2012).

For assay [1], the target named is Monoacylglycerol lipase ABHD6 (Mus musculus) (UniProt Q8R2Y0). Nature of the assay: in situ DAGLb and ABHD6 inhibitor potency – cell-based, gel-based competitive ABPP, fluorescence, dose response, late-stage follow-up (AID 602354). The following applies: mouse cells in situ.
For assay [2], the target named is Diacylglycerol lipase-beta (Mus musculus) (UniProt Q91WC9). Described as above. Conditions: mouse cells in situ, DAGLb.
Diacylglycerol lipase-beta (Mus musculus), sequence (Q91WC9 whole entry, looked up): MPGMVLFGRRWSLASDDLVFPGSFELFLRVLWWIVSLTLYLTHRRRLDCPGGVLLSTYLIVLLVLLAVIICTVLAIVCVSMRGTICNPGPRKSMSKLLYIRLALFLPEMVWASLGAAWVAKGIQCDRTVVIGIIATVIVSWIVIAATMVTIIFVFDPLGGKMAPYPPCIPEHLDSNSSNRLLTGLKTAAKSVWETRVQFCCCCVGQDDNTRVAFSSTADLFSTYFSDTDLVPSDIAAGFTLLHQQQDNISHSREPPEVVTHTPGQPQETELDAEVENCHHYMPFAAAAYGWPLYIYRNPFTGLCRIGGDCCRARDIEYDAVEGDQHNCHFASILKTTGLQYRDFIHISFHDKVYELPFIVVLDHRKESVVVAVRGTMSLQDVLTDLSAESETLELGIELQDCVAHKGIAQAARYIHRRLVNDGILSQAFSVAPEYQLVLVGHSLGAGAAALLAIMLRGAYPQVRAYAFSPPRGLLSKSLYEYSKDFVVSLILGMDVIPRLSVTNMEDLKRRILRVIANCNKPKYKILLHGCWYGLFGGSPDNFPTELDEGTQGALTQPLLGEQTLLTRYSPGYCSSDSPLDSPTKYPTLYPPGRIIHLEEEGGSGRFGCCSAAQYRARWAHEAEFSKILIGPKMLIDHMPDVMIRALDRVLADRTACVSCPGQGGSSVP

pIC50: −log10 of the molar value.

Monoacylglycerol lipase ABHD6 (Mus musculus), sequence (Q8R2Y0 whole entry, looked up): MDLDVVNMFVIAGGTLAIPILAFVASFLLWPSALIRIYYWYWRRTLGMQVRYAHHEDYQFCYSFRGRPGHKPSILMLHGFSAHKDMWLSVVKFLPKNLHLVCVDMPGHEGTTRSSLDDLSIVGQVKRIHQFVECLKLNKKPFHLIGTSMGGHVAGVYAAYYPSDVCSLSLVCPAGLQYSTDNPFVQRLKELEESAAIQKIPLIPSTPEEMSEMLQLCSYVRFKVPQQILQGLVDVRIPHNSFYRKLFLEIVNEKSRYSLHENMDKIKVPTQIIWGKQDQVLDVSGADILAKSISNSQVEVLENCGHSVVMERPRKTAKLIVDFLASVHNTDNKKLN

As for `COc1ccccc1-c1ccc(-c2cn(C(=O)N3CCCCC3Cc3ccccc3)nn2)cc1` (centres undefined), the figures for the negative-log IC50 (pIC50) in assay [1] and in assay [2] were 9.32 and 7.92, respectively.
With `O=C(N1CCCCC1Cc1ccccc1)n1cc(-c2ccc(-c3ccccc3)cc2)nn1` (centres undefined), the pIC50 in assay [1] is 9.34; in assay [2] it was 7.80.

By pIC50 is commonly meant the negative decadic logarithm of the IC50, by convention in mol/L.
